Data on two substances can be found in US4510132A, “Compounds for use in antibacterial therapy” (priority 1982, dated 1985).

Entries after “also recorded” stand apart in the source; their conditions may differ.

For data set [1], the system named is Salmonella typhimurium LT2 strain SL 696. In words: MIC of antibiotics in the presence of polymyxin nonapeptide, microtiter plate, S. typhimurium. Type of data set: cell-based. The settings on record: S. typhimurium SL 696. Here is the method: (§1) Methods. Smooth Salmonella typhimurium LT2 strain SL 696 (Wilkinson et al 1972 J. Gen. Microbiol. 70,527) was used as indicator organism. It was grown in Luria broth (Miller 1972. Experience in molecular genetics, Cold Spring Harbor Laboratory, New York) at 37° C. in a rotary shaker (220 rpm) into early logarithmic growth phase (Klett 40 units, Klett-Summerson colorimeter, red filter) washed with 0.9% NaCl and resuspended in 0.9% NaCl (final optical density 120 Klett units corresponding to approx. 10^9 cells/ml).
(§2) Erythromycin ethylsuccinate stock solution was prepared by dissolving 5.5 mg of erythromycin […] with 2 ml of 96% ethanol whereafter deionized water was added to a final volume of 5.5 ml. Other antibiotics were readily dissolved in deionized water.
(§3) Experimental procedure: Davis minimal growth medium (Sanderson et al, 1972, Bact. Rev. 36,608) containing glucose (1 g/l), casaminoacids (1 g/l. Difco), tryptophan (20 mg/l), and increasing amounts of a particular antibiotic was inoculated with 10^4 cells per ml of a fresh suspension of indicator bacteria. Aliquots (200 μl) of this inoculated medium were pipetted in wells of a microtiter plate (Titertek, CAT NO. 76-213-05, Flow Laboratories, United States). Each well already contained increasing amounts of the particular polycationic agent in 30 μl of 0.9% NaCl. The plates were sealed with adhesive tape and incubated at 37° C. for 18 h.
(§4) Methods. The known compound, polymyxin E nonapeptide (colistin E nonapeptide, Japanese patent specification Nos. 4178/1971 and 51355/1972) having the following formula: [drawing 5] where leu is leucine, thr is threonine, and dab is diaminobutyric acid, was prepared from polymyxin E (colistin) using an enzymatic ficin treatment as described by Chihara et al (Agr. Biol. Chem. 37,2455, 1973).

The test system of data set [2] is E. coli strain IH 3080 (018:K1). In words: MIC of antibiotics in the presence of polymyxin nonapeptide, microtiter plate, E. coli. Type of data set: cell-based. As to conditions: E. coli. Here is the method:
as §1, §2, §3
Methods. The methods were those presented in Example 3 except that E. coli was used as the test organism. The E. coli strain was IH 3080 (018:K1) isolated from the cerebrospinal fluid of a neonate with meningitis.
as §4

In data set [3] the test system is E. coli strains IHE 3080, EH 817, IHE 11038, IHE 11055, IHE 11167. In words: Sensitization of E. coli strains to killing by 10% normal human serum (complement). Format: cell-based. The protocol: Methods. The strains used were smooth Salmonella typhirmurium LT2 strain SL 696 (Wilkinson et al 1972 J. Gen. Microbiol. 70, 527) and the following E. coli strains isolated at the National Public Health Institute, Helsinki: IHE 3080 (018,K1), EH 817 (018,K1^- derivative of IHE 3080), IHE 11038 (018,K5), IHE 11055 (02,K1), and IHE 11167 (04,K12). Bacteria were grown in Luria broth (Miller 1972. Experiments in molecular genetics, Cold Spring Harbor Laboratory, New York) at 37° C. in a rotary shaker (220 rpm) into early logaritmic growth phase (Klett 40 units, Klett-Summerson colorimeter, red filter) washed with PBS (phosphate buffered saline, 8.0 g of NaCl, 0.2 g of KCl, 1.44 g of Na2 HPO4 x2H2 O and 0.2 g of KH2 PO4 per liter) and resuspended in PBS, (final optical density 120 Klett units corresponding to approx. 10^9 cells/ml).
Pooled normal human serum from 39 healthy blood donors was used as complement source. It was stored at -70° C. before use.
Experimental procedure: 10% NHS in PBS was inoculated with approx. 300 cells of freshly grown bacteria and pipetted in 200 μl aliquots in wells of mictrotiter plate (Titertek®, CAT NO. 76-213-05). The wells already contained increasing amounts of PMBN in 30 μl of 0.9% NaCl. […] The agar plates were incubated overnight at 37° C. and the developed colonies were counted.

The subject of another data set is mice. The settings on record: Chihara et al, Kajiwara et al; cited from earlier work.
For data set [4] the following is noted: Chihara et al 1973, 1974; cited from earlier work.

Turning to polymyxin B nonapeptide [PMBN], in data set [1], the “concentration of PMBN required to sensitize the bacteria to most antibiotics by a factor of 10-30” value is listed as 1-3 μg/ml. Also, in data set [2], the “amount of PMBN sufficient to sensitize E. coli to erythromycin and fusidic acid by a factor of 30” value was found to be 0.3 µg. Besides, in data set [3] (E. coli strains, 10% normal human serum, 2 h), the “concentration of PMBN that sensitized the strains to killing by 10% NHS” value worked out at 0.3 µg/mL. Further, in data set [3] (complement destroyed by heat (30 min at 56° C.) or zymosan A), the “bactericidal action of serum in the presence of PMBN after inactivation of complement” value was “the serum lost its capacity to kill bacteria; also recorded: NHS lost its bactericidal, PMBN-dependent action”.

Consider polymyxin E nonapeptide [PMEN], for which the “toxicity to eukaryotes (mice) compared with parent compound colistin” value with mice is recorded as “significantly less toxic”. Besides, in data set [4], the “antibacterial activity compared with colistin” value is recorded as “lack the antibacterial activity of colistin”.
